Active and inactive are the calls of the source. The calls are words filed in the database; no cut-off is given here. Peptide text beside a SMILES is read from it. * marks the point of attachment. Bz = O=C(c1ccccc1)*
Legend:
[1] = biological target: Genome polyprotein (West Nile virus) (UniProt P06935); assay: Inhibition of West Nile virus NS2B-NS3 protease at 50 uM using 2-Abz-Nle-Lys-Arg-Arg-Ser-(3-NO2)-Tyr-NH2 FRET substrate preincubated for 15 mins followed by substrate addition measured after 15 mins by fluorimetric analysis relative to control
[2] = biological target: Genome polyprotein (dengue virus type 2) (UniProt P29990); assay: Inhibition of Dengue virus NS2B-NS3 protease at 50 uM using 2-Abz-Nle-Lys-Arg-Arg-Ser-(3-NO2)-Tyr-NH2 FRET substrate preincubated for 15 mins followed by substrate addition measured after 15 mins by fluorimetric analysis relative to control
[3] = biological target: Genome polyprotein (dengue virus type 2) (UniProt P29990); assay: Binding affinity to Dengue virus NS2B-NS3 protease assessed as presence of lysine and benzyloxy-phenylglycine residues in active site
Trypsin (Homo sapiens) = Trypsin (Homo sapiens) (UniProt P07477+P07478+P35030); assay: Inhibition of trypsin (unknown origin) at 50 uM using Boc-Val-Pro-Arg-AMC as substrate preincubated for 15 mins followed by substrate addition measured after 10 mins by fluorimetric analysis relative to control; assay type: protein assay
Genome polyprotein [4] = biological target: T1, Genome polyprotein (dengue virus type 2, UniProt P29990); assay: Inhibition of Dengue virus NS2B-NS3 protease using 2-Abz-Nle-Lys-Arg-Arg-Ser-(3-NO2)-Tyr-NH2 FRET substrate preincubated for 15 mins followed by substrate addition measured after 15 mins by fluorimetric analysis
[5] = biological target: Genome polyprotein (dengue virus type 2) (UniProt P29990); assay: Competitive inhibition of Dengue virus NS2B-NS3 protease assessed as increase in intrinsic fluorescence of tryptophan at active site measured after 5 mins in presence of quencher by tryptophan quenching assay
[6] = biological target: Genome polyprotein (dengue virus type 2) (UniProt P29990); assay: (§1) Reversible inhibition of Dengue virus NS2B-NS3 protease at 60 uM preincubated for 3 to 6 hrs followed by 2-Abz-Nle-Lys-Arg-Arg-Ser-(3-NO2)-Tyr-NH2 FRET substrate addition followed by further compound dilution to 1.7 uM and measured every 30 mins for 2 hrs by dilution experiment based fluorimetric analysis
[7] = biological target: Genome polyprotein (dengue virus type 2) (UniProt P29990); assay: Reversible inhibition of Dengue virus NS2B-NS3 protease assessed as increase in intrinsic fluorescence of tryptophan at active site at 60 uM pretreated for 16 hrs followed by quencher addition measured after 5 mins by tryptophan quenching assay
Huh-7 = assay: Cytotoxicity against human HuH7 cells infected with Dengue virus serotype 2 assessed as effect on cell viability up to 50 uM after 48 hrs by Celltiter-blue assay; assay type: cell-based; settings: huh-7, 48 h
dengue virus type 2 [8] = assay: Binding affinity to Dengue virus serotype 2 […]-NS3 protease S135A mutant expressed in Escherichia coli BL21 lambda (DE3) cells assessed as effect on intrinsic fluorescence of tryptophan at active site at 20 to 60 uM measured after 5 mins in presence of quencher by tryptophan quenching assay
[9] = biological target: Genome polyprotein (dengue virus type 2) (UniProt P29990); assay: as §1, with “Time dependent irreversible” for “Reversible”
[10] = biological target: Genome polyprotein (dengue virus type 2) (UniProt P29990); assay: Competitive inhibition of Dengue virus NS2B-NS3 protease assessed as increase in intrinsic fluorescence of tryptophan at active site at 20 to 60 uM measured after 5 mins in presence of quencher by tryptophan quenching assay
dengue virus type 2 [11] = assay: Antiviral activity against Dengue virus serotype 2 infected in HuH7 cells assessed as reduction in viral titer after 48 hrs by plaque assay; assay type: functional, organism-based; settings: Huh-7, 48 h
Genome polyprotein [12] = biological target: T1, Genome polyprotein; assay: Substrate activity at Dengue virus NS2B-NS3 protease assessed as time taken for peptide cleavage at 100 uM incubated for 11 hrs by HPLC-ESI/MS analysis; assay type: ADME
[13] = biological target: Prothrombin (Homo sapiens) (UniProt P00734); assay: Inhibition of thrombin (unknown origin) at 50 uM using Boc-Val-Pro-Arg-AMC as substrate preincubated for 15 mins followed by substrate addition measured after 10 mins by fluorimetric analysis relative to control
[14] = biological target: Genome polyprotein (dengue virus type 2) (UniProt P29990); assay: Competitive inhibition of Dengue virus NS2B-NS3 protease assessed as increase in intrinsic fluorescence of tryptophan at active site up to 20 uM measured after 5 mins by tryptophan quenching assay
dengue virus type 2 [15] = assay: Binding affinity to Dengue virus serotype 2 […]-NS3 protease S135A mutant expressed in Escherichia coli BL21 lambda (DE3) cells assessed as effect on intrinsic fluorescence of tryptophan at active site up to 20 uM by tryptophan quenching assay
Genome polyprotein [16] = biological target: Genome polyprotein (West Nile virus, UniProt P06935); assay: Inhibition of West Nile virus NS2B-NS3 protease using 2-Abz-Nle-Lys-Arg-Arg-Ser-(3-NO2)-Tyr-NH2 FRET substrate preincubated for 15 mins followed by substrate addition measured after 15 mins by fluorimetric analysis

| Compound | inhibition [1] | inhibition [2] | inhibition (Trypsin (Homo sapiens)) | IC50 (Genome polyprotein [4]) | also measured |
| --- | --- | --- | --- | --- | --- |
| CCCC[C@H](NC(=O)[C@H](CCCCN)NC(=O)c1ccccc1)C(=O)N[C@H]1CN(c2ccccc2)C1=O | < 20% | < 20% | – | – | – |
| N[C@@H](C(=O)N[C@H]1CN(c2ccccc2)C1=O)c1ccc(OCc2ccccc2)cc1 | – | – | – | – | Activity [3]: Active |
| CCCC[C@H](NC(=O)[C@H](CCCCN)NC(=O)c1ccccc1)C(=O)N[C@@H]1CN(c2ccccc2)C1=O | 24.4% | < 20% | > 20% | – | – |
| Cc1ccc(N2C[C@H](NC(=O)[C@H](NC(=O)[C@H](CCCCN)NC(=O)[C@H](CCCNC(=N)N)NC(=O)c3ccccc3)c3ccc(OCc4ccccc4)cc3)C2=O)cc1 | 60.3% | 95.9% | – | 2.7 µM | – |
| NCCCC[C@H](NC(=O)c1ccccc1)C(=O)N[C@@H](CCCCN)C(=O)N[C@@H]1CN(c2ccccc2)C1=O | 51.7% | 39.7% | > 20% | – | – |
| N=C(N)NCCC[C@H](NC(=O)c1ccccc1)C(=O)N[C@@H](CCCCN)C(=O)N[C@@H](C(=O)N[C@H]1CN(c2ccccc2)C1=O)c1ccc(OCc2ccccc2)cc1 | 60.1% | 96% | – | 2.3 µM | inhibition [5]: Dose-dependent effect; inhibition [6]: inactive; inhibition [7]: Active; Activity (Huh-7): Non-Toxic; Activity (dengue virus type 2 [8]): inactive; inhibition [9]: inactive; inhibition [10]: Active; EC50 (dengue virus type 2 [11]): 11.7 µM; Time (Genome polyprotein [12]): 14 h |
| N=C(N)NCCC[C@H](NC(=O)c1ccccc1)C(=O)N[C@@H](CCCCN)C(=O)N[C@@H](C(=O)N[C@H]1CN(c2ccc(F)cc2)C1=O)c1ccc(OCc2ccccc2)cc1 | 60.9% | 96.3% | – | 2.5 µM | Activity (Huh-7): Non-Toxic; EC50 (dengue virus type 2 [11]): 4.1 µM |
| CCCC[C@H](NC(=O)[C@H](CCCNC(=N)N)NC(=O)c1ccccc1)C(=O)N[C@H]1CN(c2ccccc2)C1=O | < 20% | < 20% | > 20% | – | – |
| N=C(N)NCCC[C@H](NC(=O)c1ccccc1)C(=O)N[C@@H](CCCCN)C(=O)N[C@@H](C(=O)N[C@@H]1CN(c2cccc(F)c2)C1=O)c1ccc(OCc2ccccc2)cc1 | 61.6% | 80.8% | < 20% | 12.4 µM | inhibition [13]: < 20% |
| N=C(N)NCCC[C@H](NC(=O)c1ccccc1)C(=O)N[C@@H](CCCCN)C(=O)N[C@@H]1CN(c2ccccc2)C1=O | 27.8% | 71.6% | – | 17.7 µM | – |
| N=C(N)NCCC[C@H](NC(=O)[C@H](CCCCN)NC(=O)c1ccccc1)C(=O)N[C@@H]1CN(c2ccccc2)C1=O | < 20% | < 20% | – | – | – |
| Cc1ccc(N2C[C@@H](NC(=O)[C@H](NC(=O)[C@H](CCCCN)NC(=O)[C@H](CCCNC(=N)N)NC(=O)c3ccccc3)c3ccc(OCc4ccccc4)cc3)C2=O)cc1 | 52.9% | 73.5% | < 20% | 15.9 µM | inhibition [13]: < 20% |
| N=C(N)NCCC[C@H](NC(=O)c1ccccc1)C(=O)N[C@@H](CCCCN)C(=O)N[C@@H](C(N)=O)c1ccc(OCc2ccccc2)cc1 | – | – | – | – | Time (Genome polyprotein [12]): 7 h |
| CCCC[C@H](NC(=O)[C@H](CCCNC(=N)N)NC(=O)c1ccccc1)C(=O)N[C@@H]1CN(c2ccccc2)C1=O | < 20% | < 20% | – | – | – |
| N=C(N)NCCC[C@H](NC(=O)c1ccccc1)C(=O)N[C@@H](CCCCN)C(=O)N[C@@H](C(=O)N[C@H]1CN(c2cccc(F)c2)C1=O)c1ccc(OCc2ccccc2)cc1 | 64.1% | 96.8% | – | 1.9 µM | – |
| NCCCC[C@H](NC(=O)c1ccccc1)C(=O)N[C@@H](CCCCN)C(=O)N[C@H]1CN(c2ccccc2)C1=O | < 20% | < 20% | – | – | – |
| N=C(N)NCCC[C@H](NC(=O)c1ccccc1)C(=O)N[C@@H](CCCCN)C(=O)N[C@@H](C(=O)N[C@@H]1CN(c2ccc(F)cc2)C1=O)c1ccc(OCc2ccccc2)cc1 | 43.4% | 65.5% | < 20% | – | inhibition [13]: < 20% |
| N=C(N)NCCC[C@H](NC(=O)c1ccccc1)C(=O)N[C@@H](CCCCN)C(=O)O (Bz-Arg-Lys-OH) | – | – | – | – | Activity [3]: Active |
| COc1cccc(COc2ccc([C@@H](NC(=O)[C@H](CCCCN)NC(=O)[C@H](CCCNC(=N)N)NC(=O)c3ccc(-c4cccs4)s3)C(N)=O)cc2)c1 | – | – | – | – | inhibition [14]: Active; Activity (dengue virus type 2 [15]): Active |
| N=C(N)NCCC[C@H](NC(=O)[C@H](CCCCN)NC(=O)c1ccccc1)C(=O)N[C@H]1CN(c2ccccc2)C1=O | < 20% | < 20% | – | – | – |
| N=C(N)NCCC[C@H](NC(=O)c1ccccc1)C(=O)N[C@@H](CCCCN)C(=O)N[C@@H](C(=O)N[C@@H]1CN(c2ccccc2)C1=O)c1ccc(OCc2ccccc2)cc1 | 46.9% | 68.8% | < 20% | – | inhibition [13]: < 20% |
| N=C(N)NCCC[C@H](NC(=O)c1ccccc1)C(=O)N[C@@H](CCCCN)C(=O)N[C@H]1CN(c2ccccc2)C1=O | 81.4% | 57.1% | – | – | IC50 (Genome polyprotein [16]): 22.5 µM |
| Cc1cccc(N2C[C@@H](NC(=O)[C@H](NC(=O)[C@H](CCCCN)NC(=O)[C@H](CCCNC(=N)N)NC(=O)c3ccccc3)c3ccc(OCc4ccccc4)cc3)C2=O)c1 | 45.1% | 77.7% | < 20% | 16.4 µM | inhibition [13]: < 20% |
| Cc1cccc(N2C[C@H](NC(=O)[C@H](NC(=O)[C@H](CCCCN)NC(=O)[C@H](CCCNC(=N)N)NC(=O)c3ccccc3)c3ccc(OCc4ccccc4)cc3)C2=O)c1 | 46.8% | 96.5% | – | 2.8 µM | – |
